Patent US20140031432A1, “TREATMENT OF MITOCHONDRIAL DISEASES WITH VITAMIN K” (Ampere Life Sciences, Inc., priority 2010, published 2014)

Legend:
Format in all cases: cell-based
[1] = tested on: human dermal fibroblasts from Huntington's patients; assay: Rescue of fibroblasts from Huntington's patients from oxidative stress (Example B); details: Fibroblast, Huntington's cells (Coriell GM 04281), screen as in Example A (BSO stress), read-out: protection against Huntington's, EC50
Method: [The source words this procedure for another cell line and reports this cell line under the same test.] (§1) Test samples and solvent controls were tested for their ability to rescue FRDA fibroblasts stressed by addition of L-buthionine-(S,R)-sulfoximine (BSO), as described in Jauslin et al., Hum. Mol. Genet. 11(24):3055 (2002), Jauslin et al., FASEB J. 17:1972-4 (2003), and International Patent Application WO 2004/003565. […] This specific BSO-mediated cell death can be prevented by administration of antioxidants or molecules involved in the antioxidant pathway, such as alpha-tocopherol, selenium, or small molecule glutathione peroxidase mimetics. However, antioxidants differ in their potency, i.e. the concentration at which they are able to rescue BSO-stressed FRDA fibroblasts.
(§2) MEM (a medium enriched in amino acids and vitamins, catalog no. 1-31F24-I) and Medium 199 (M199, catalog no. 1-21F22-I) with Earle's Balanced Salts, without phenol red, were purchased from Bioconcept. Fetal Calf Serum was obtained from PAA Laboratories. Basic fibroblast growth factor and epidermal growth factor were purchased from PeproTech. Penicillin-streptomycin-glutamine mix, L-buthionine (S,R)-sulfoximine, and insulin from bovine pancreas were purchased from Sigma. Calcein AM was purchased from Molecular Probes. Cell culture medium was made by combining 125 ml M199 EBS, 50 ml Fetal Calf Serum, 100 U/ml penicillin, 100 μg/ml streptomycin, 2 mM glutamine, 10 μg/ml insulin, 10 ng/ml EGF, and 10 ng/ml bFGF; MEM EBS was added to make the volume up to 500 ml. A 10 mM BSO solution was prepared by dissolving 444 mg BSO in 200 ml of medium with subsequent filter-sterilization. During the course of the experiments, this solution was stored at +4° C. The cells were obtained from the Coriell Cell Repositories (Camden, N.J.; repository number GM04078) and grown in 10 cm tissue culture plates. Every third day, they were split at a 1:3 ratio. […]
(§3) 100 μl of PBS containing 1.2 μM Calcein AM were then added to each well. […] After that time the PBS was discarded, the plate gently tapped on a paper towel and fluorescence (excitation/emission wavelengths of 485 nm and 525 nm, respectively) was read on a Gemini fluorescence reader. […]

[2] = tested on: Human dermal fibroblasts from Friedreich's ataxia patients; assay: Rescue of BSO-stressed FRDA fibroblasts (Example A); details: FRDA fibroblasts (Coriell GM04078), 1 mM BSO, 48 h, Calcein AM viability, read-out: protection against FRDA, EC50
Method: as §1, §2, §3

[3] = tested on: human dermal fibroblasts from LHON patients; assay: Rescue of fibroblasts from LHON patients from oxidative stress (Example C); details: Fibroblast, LHON cells (Coriell GM03858), screen as in Example A (BSO stress), read-out: protection against LHON, EC50
Method: [The source words this procedure for another cell line and reports this cell line under the same test.] as §1
(§4) MEM (a medium enriched in amino acids and vitamins, catalog no. 1-31F24-I) and Medium 199 (M199, catalog no. 1-21F22-I) with Earle's Balanced Salts, without phenol red, were purchased from Bioconcept. Fetal Calf Serum was obtained from PAA Laboratories. Basic fibroblast growth factor and epidermal growth factor were purchased from PeproTech. […]
as §3

[4] = tested on: human dermal fibroblasts from Parkinson's disease patients; assay: Rescue of fibroblasts from Parkinson's disease patients from oxidative stress (Example D); details: Fibroblast, Parkinson's disease cells (Coriell AG20439), screen as in Example A (BSO stress), read-out: protection against PD, EC50
Method: [The source words this procedure for another cell line and reports this cell line under the same test.] as §1, §4, §3

Compound	EC50 [1]	EC50 [2]	EC50 [3]	EC50 [4]
CC(C)=CCC/C(C)=C/CC/C(C)=C/CC/C(C)=C/CC1=C(C)C(=O)c2ccccc2C1=O [2-methyl-3-[3,7,11,15-tetramethylhexadeca-2,6,10,14-tetraen-1-yl]naphthoquinone]	< 500 nM	< 1000 nM	–	–
CC(C)=CCCC(C)=CCC1=C(C)C(=O)c2ccccc2C1=O [2-(3,7-dimethylocta-2,6-dien-1-yl)-3-methylnaphthalene-1,4-dione]	< 500 nM	< 1000 nM	< 300 nM	< 500 nM
CC1=CC(=O)c2ccccc2C1=O [2-methylnaphthalene-1,4-dione]	< 500 nM	< 1000 nM	< 300 nM	< 500 nM
